In one data set the test system is triglyceride absorption. Description: [3H]triolein-derived counts in plasma (triglyceride absorption). It is filed as in vivo, mouse. As to conditions: myriocin treated animals (WT, apoE KO), within 24 hours. The protocol:
FIGS. 5A-I depict several graphs that illustrate that SPT deficient mice absorbed less cholesterol. Mice (n=6, 10-12 weeks old) were fasted for 5 hours and gavaged with 0.1 microCi [^14C]cholesterol and 0.2 microCi [^3H]sitostanol with 0.5 mg unlabeled cholesterol dissolved in 15 microl of olive oil. Feces were collected after 24 hours and lipids were extracted for counting (FIGS. 5A, 5D, and 5G, cholesterol absorption, WT vs WT/myriocin; apoE KO vs apoE KO/myriocin; WT vs Sptlc1^+/−, respectively). Blood was collected during the 24 hour period (Panels B, E, and H, [^14C]cholesterol in blood, WT vs WT/myriocin; apoE KO vs apoE KO/myriocin; WT vs Sptlc1^+/−, respectively). To test specificity, the mice were gavaged with 0.2 microCi [^3H]triolein together with 0.5 mg/ml cold cholesterol. Blood was collected during the 24 hour period (FIGS. 5C, 5F, and 5I, [^3H] glycerolipids in blood, WT versus WT/myriocin; apoE KO versus apoE KO/myriocin; WT versus Sptlc1^+/−, respectively). Value is mean±SD. *P<0.01.
To investigate whether the effect of SPT deficiency was specific to cholesterol, experimental mice were fed with […] [^3H]triolein instead of [^14C]cholesterol, and blood was collected at different time points within 24 hours.

The next data set relates to small intestine. Nature of the data set: Small intestine morphology, hematoxylin and eosin staining. It is filed as in vivo, mouse. The settings on record: WT and apoE KO mice after myriocin treatment. The text has this:
The small intestine was dissected out and put into 4% paraformaldehyde for fixation overnight. The tissue was then sliced (10 micrometer thick). Each slice was deparaffinized and stained with hematoxylin and eosin. The morphology was checked by microscope. WT mice fed chow diet (FIGS. 2A, 2B) or chow diet plus myriocin (FIGS. 2C, 2D). FIGS. 2A and 2C are at 10× magnification, while FIGS. 2B and 2D are at 40× magnification.
The small intestine was dissected out and put into 4% paraformaldehyde for fixation overnight. The tissue was then sliced (10 micrometer thick). Each slice was deparaffinized and stained with hematoxylin and eosin. The morphology was checked by microscope. apoE KO mice fed chow diet (FIGS. 3A, 3B) or chow diet plus myriocin (FIGS. 3C, 3D). FIGS. 3A and 3C are at 10× magnification, while FIGS. 3B and 3D are at 40× magnification.
Mouse small intestine hematoxylin and eosin staining: The small intestine was dissected out and put into 4% paraformaldehyde for fixation overnight. The tissue was then sliced (10 micro m thick). Each slice was deparaffinized and stained with hematoxylin and eosin.
To investigate whether myriocin treatment or Sptlc1^+/− had any impact on small intestine morphology, intestinal sections were stained with hematoxylin and eosin. As shown in FIGS. 2 through 4, neither myriocin treatment nor Sptlc1^+/− influenced the morphology of the small intestine.

In another data set the test system is ABCA1 mRNA. Nature of the data set: Real-time PCR, ABCA1 mRNA. It is filed as in vivo, mouse. As to conditions: for decrease of ABCA1 mRNA levels: liver, P<0.05; for decrease of ABCA1 mRNA levels compared with controls: small intestine, P<0.01. The protocol:
(§1) FIGS. 9A-F depict that Mouse small intestine and liver NPC1L1, ABCG5/G8, and ABCA1 mRNA measurements. NPC1L1, ABCG5/G8, and ABCA1 mRNA levels were measured by real-time PCR as described in “Methods and Materials.” FIG. 9A, jejunum from WT mice with or without myriocin treatment; FIG. 9B, jejunum from apoE KO mice with or without myriocin treatment; FIG. 9C, jejunum from WT and Sptlc1^+/− mice; FIG. 9D, liver from WT mice with or without myriocin treatment; FIG. 9E, liver from apoE KO mice with or without myriocin treatment; FIG. 9F, liver from WT and Sptlc1^+/− mice. Values are mean±SD, n=5. *P<0.01.
Real-time PCR examined genes' expression: Mice were sacrificed by cervical dislocation. Jejunum was dissected, and total RNA extracted with Trizol (Invitrogen). cDNA was synthesized with an Invitrogen kit. Polymerase chain reaction (PCR) was performed on a total volume of 20 microl with the sybergreen kit from Applied Biosystems, 18S being used as an internal control. The amplification program consisted of activation at 95 degrees C. for 10 minutes, followed by 40 amplification cycles: 95 degrees C. for 15 seconds, 60 degrees C. for 1 minute. Each sample was triplicated. The genes' relative expression was expressed as mean±SD. The primers are located in the below table which lists the name, sequence, and sequence identification number.
For further elucidation of the possible mechanisms for cholesterol absorption reduction in the SPT-deficient small intestine, NPC1L1, ABCG5/G8, and ABCA1 mRNA levels in myriocin-treated WT, apoE KO, and Sptlc1^+/− mice, as well as in controls were measured. […] Moreover, intestinal MTP activity was not influenced by SPT deficiency (data not shown). Also, the liver mRNA levels were measured to find that myriocin treatment or Sptlc1 deficiency has no influence on ABCG5/G8 mRNA levels […]. […] NPC1L1 mRNA in WT or Sptlc1^+/− livers were not detected (data not shown).
(In general: Quantitative PCR measures a nucleic acid by following its amplification.)

For a further data set, the system named is primary enterocyte. Nature of the data set: Cholesterol and oleic acid uptake by primary enterocytes. It is filed as cell-based, mouse. The method, then: FIGS. 6A-D depict several graphs that illustrate that SPT deficient enterocytes absorb less cholesterol than controls. Enterocytes were isolated from mice (n=4, 12-14 weeks old) and resuspended in 4 ml of DMEM containing 0.05 microCi/ml of either [^14C]cholesterol (FIGS. 6A and 6C) or [^3H]oleic acid (FIGS. 6B and 6D). Enterocytes (100 microl) were collected at 5, 10, and 20 minutes, washed twice with DMEM, and cellular radioactivity was determined. The amounts of lipids were normalized to protein and plotted against time. FIGS. 6A and 6B, WT vs WT/myriocin; FIGS. 6C and 6D, WT vs Sptlc1^+/−, Values are mean±SD. *P<0.01.
Cholesterol uptake by primary enterocyte: The enterocyte cholesterol uptake study was carried out as disclosed in: Iqbal J, Hussain M M. Evidence for multiple complementary pathways for efficient cholesterol absorption in mice. J Lipid Res. 2005; 46:1491-1501, which is incorporated herein by reference in its entirety.
For further confirmation of the above in vivo observations, enterocytes were isolated from myriocin-treated or Sptlc1^+/− mice, as well as controls, incubated with radiolabeled cholesterol for varying times, and the cellular radioactivity was determined. […] Experiments were performed to study the uptake of [^3H]oleic acid.

The test system of a further data set is NPC1L1 mRNA. Nature of the data set: Real-time PCR, NPC1L1 mRNA. It is filed as in vivo, mouse. The settings on record: small intestine (jejunum). The method, then: as §1
Real-time PCR examined genes' expression: Mice were sacrificed by cervical dislocation. Jejunum was dissected, and total RNA extracted with Trizol (Invitrogen). cDNA was synthesized with an Invitrogen kit. […] The genes' relative expression was expressed as mean±SD. […]
For further elucidation of the possible mechanisms for cholesterol absorption reduction in the SPT-deficient small intestine, NPC1L1, ABCG5/G8, and ABCA1 mRNA levels in myriocin-treated WT, apoE KO, and Sptlc1^+/− mice, as well as in controls were measured. […] Also, the liver mRNA levels were measured to find that myriocin treatment or Sptlc1 deficiency has no influence on ABCG5/G8 mRNA levels (FIG. 7B). […] NPC1L1 mRNA in WT or Sptlc1^+/− livers were not detected (data not shown).

The subject of a further data set is enterocytes. Description: Mouse enterocyte lipid measurement. It is filed as in vivo. The protocol: The mechanisms responsible for decreased cholesterol absorption in myriocin-treated or Sptlc1^+/− mice were explored. First, lipid levels were measured in enterocytes isolated from myriocin-treated and Sptlc1^+/− mice, as well as controls.
Where [1] appears, read: myriocin-treated mice vs controls.

“Also recorded” adds a separate entry of the source.

As for `CCCCCCC(=O)CCCCCC/C=C/C[C@@H](O)[C@H](O)[C@@](N)(CO)C(=O)O` [Myriocin, myriocin], in the data set with triglyceride absorption, the “[3H]triolein-derived counts in the plasma vs controls” value is reported as “No significant changes”. The “morphology / pathological changes of the small intestine (gastrointestinal toxicity)” value in the data set on small intestine was “no pathological changes; also recorded: intact villi, epithelia, enterocytes, goblet cells, and brush borders”. Also, in the data set on ABCA1 mRNA (WT mice), the “decrease of ABCA1 mRNA levels” value came out at 20% and the “decrease of ABCA1 mRNA levels compared with controls” value is listed as 48%. Also, in the data set with ABCA1 mRNA (apoE KO mice), the “decrease of ABCA1 mRNA levels” value was 18% and the “decrease of ABCA1 mRNA levels compared with controls” value amounted to 39%. Moreover, in the data set with primary enterocyte (enterocytes isolated from myriocin-treated mice), the “uptake of [3H]oleic acid vs controls” value is “No significant changes”. In the data set with primary enterocyte (enterocytes isolated from myriocin-treated mice, 5, 10, 20 minutes), the “radiolabeled cholesterol uptake (cellular radioactivity) vs controls” value is on record as “significantly less radioactivity”. In the data set on NPC1L1 mRNA, the “NPC1L1 mRNA levels” value is listed as “No significant changes”. In the data set on enterocytes (WT mice, mean ± SD, N=5-7), the “enterocyte Chol (cholesterol)” value came to 16.2 ± 1.2 microg/mg protein, the “enterocyte PC (phosphatidylcholine)” value was 27.9 ± 2.3 microg/mg protein, the “enterocyte SM (sphingomyelin)” value is reported as 6.2 ± 0.9 microg/mg protein and the “enterocyte TG (triglycerol)” value stood at 11.1 ± 1.9 microg/mg protein. Also, in the data set with enterocytes (setting [1]), the “SM levels in enterocytes, in words” value is on record as “significantly decreases” and the “cellular cholesterol, phosphatidylcholine, or triglyceride levels in enterocytes, in words” value is “no effect”.

Source of the values: US20090264528A1, “SERINE PALMITOYLCOA TRANSFERASE (SPT) INHIBITION BY MYRIOCIN OR GENETIC DEFICIENCY DECREASES CHOLESTEROL ABSORPTION” (The Research Foundation of State University of New York, priority 2008, published 2009).
